{"source": "patent US11472844B2", "about": "“Peptidomimetics, method of synthesis and uses thereof” (priority 2017, dated 2022)", "key": {"[1]": {"tested_on": "human neutrophil granules", "test": "Fluorescent labelling of fixed purified human neutrophils", "type": "cell-based", "details": "1 μg/mL", "method": "Fixation and staining procedures. For microscopy studies, purified or cultured cells and polymerized lactoferrin were resuspended onto 24-well plates containing 12 mm coverslips in RMPI 1640+10 mM Hepes (when cultured in the autologous plasma) and centrifuged at 300×g for 10 min. Culture media were removed and cells were fixed in 4% Paraformaldehyde (PFA) for two hours. Fixed cells were washed three times in PBS+0.1% saponin (Sigma-Aldrich), prior immunolabeling with primary antibodies in the same buffer for 1 hour (Triton 0.1% can alternatively be used for cell permeabilization). After three additional washes in PBS+0.1% saponin, secondary antibodies and fluorescent markers were incubated for one hour. Coverslips were washed three time in PBS+0.1% saponin, three times in PBS, and three times in deionized H2O and mounted with prolong gold^tm mounting media.\nAntibodies, fluorescent markers. For immunofluorescence assay, lactoferrin was detected with a mouse anti-lactoferrin primary monoclonal antibody (Hycult biotech, clone 265-1K1, 1:50 dilution) and an anti-mouse-FITC conjugated secondary antibody (1:1000). Nuclei were detected with DAPI (Life Technologies), Lyophilized MUB40 peptides (MUB40#1 (SEQ ID NO: 3)-Cy5, MUB40#2 (SEQ ID NO: 4)-Cy5, MUB40#3 (SEQ ID NO: 5)-Cy5, MUB40#4 (SEQ ID NO: 6)-Cy5, MUB40#1 (SEQ ID NO: 3)-Dylight, RI-MUB40 (SEQ ID NO: 2)-Cy5, and RI-MUB40 (SEQ ID NO: 2)-Biotin) were solubilized in a phosphate buffer pH8 at a 1 mg/mL concentration and used at a 1:1000 dilution. For PBMC staining CD19-APC (B lymphocytes), CD3-APC (T lymphocytes), and CD14-PercP (monocytes, macrophages) (BD Bioscience) were used at a 1:1000 dilution together with Dapi (1:1000) and MUB40-Cy5 (1 mg/mL). Actin was stained with Phalloidin-Rhodamine red X (RRX) (Jackson Immunoresearch Antibodies) used at a 1:1000 final dilution.\nPolymorphonuclear neutrophils purification. Human polymorphonuclear neutrophils were purified as described previously (Monceaux et al. 2016). Briefly, plasma was removed by centrifugation (450×g, 15 min); blood cells were resuspended in 0.9% NaCl solution supplemented with 0.72% Dextran. After red blood cells sedimentation, white blood cells were pelleted and further separated on a two layer Percoll (GE Healthcare) (51%−42%) by centrifugation (at 240×g, 20 min). PBMC (top layer) were isolated from polymorphonuclear neutrophils (bottom layer). Red blood cells were removed from the latter fraction using CD235a (glycophorin) microbeads (negative selection) (Miltenyi Biotec). PBMCs and polymorphonuclear neutrophils were resuspended in the autologous plasma. Guinea pig and mouse polymorphonuclear neutrophils were purified with the same procedure.\nConfocal microscopy. […]"}, "[2]": {"tested_on": "Human hematopoietic stem cells (CD34+)", "test": "Labelling of hematopoietic stem cells and derived neutrophils", "type": "cell-based", "method": "Hematopoietic Stem cells (CD34+) purification, proliferation and differentiation. HSC were purified from cytapheresis products with a CD34 Microbead Kit Ultrapure, according to the manufacturer procedure (Miltenyi). Lin^−/CD34+ HSC purity yield was >98%. CD34+ HSC were cultured in StemSpan SFEM II supplemented with SCF (100 ng/ml), IL-3 (10 ng/ml), and IL-6 (100 ng/ml) at 37° C. with 5% CO2. Neutrophil differentiation was induced in StemSpan SFEM II containing G-CSF (10 ng/ml), SCF (100 ng/ml), and IL-3 (10 ng/ml) for 13 days at 37° C. with 5% CO2."}, "[3]": {"tested_on": "neutrophils recruited to mouse colon infected with Shigella sonnei", "test": "Mouse model of shigellosis, staining of fixed colon sections", "details": "1 μg/ml", "method": "Mouse. The experimental protocol was approved by the french Ethic Committee Paris (number 20150042). Female 6 week-old BALB/cJRi mice from Charles River were orally gavaged with streptomycin (100 μL of 200 mg/ml solution) 24 hours prior to Shigella sonnei infection. Mice were orally gavaged with 10^10 CFUs S. sonnei carrying pMW211 expressing DsRed and monitored for 24 hours. At the end of the experiment, animals were sacrificed and tissue sections from the colon were extracted. Colon sections were placed in 4% paraformaldehyde (PFA) solution for 2 hours. PFA fixed tissue sections were passaged for 16 hours in 16% sucrose followed by 4 hours in 30% sucrose solutions. Fixed colon slices were embedded in OCT (VWR 361603E) and flash frozen in dry ice chilled 2-methylbutane. Frozen blocks were stored at −80 until sectioning. […] Tissue slices were prepared for fluorescence microscopy by incubation in 0.1% saponin for 1 hour followed by incubation with fluorescent markers specific for actin (phalloidin-FITC, Life Technology) and MUB40-Cy5 at a final 1 μg/ml concentration. […]\nSpinning disk microscope. Mouse colons infected with S. sonnei pDsRed were imaged on a Bruker Opterra fluorescence microscope using a Zeiss Plan-Apochromat 63×/1.40 oil immersion lense and Prairie View software version 5.3. […]"}}, "note": "*: point of attachment. X1 = CC[N+]1=C(/C=C/C=C/C=C2N(CCCCCC(=O)NCCN3C(=O)CC(*)C3=O)c3ccc(S(=O)(=O)O)cc3C2(C)C)C(C)(C)c2cc(S(=O)(=O)[O-])ccc21"}
{"substance": "Ac-C(X1)TAEGIKKFEGDGYELFKDNFPAGEKFDNDDTNDQFYTVIF-NH2 [Cy5-MUB40#1]", "values": [{"measurement": "labelling of human neutrophil granules", "setting": "[1]; listed as MUB40#1-Cy5", "result": "granular staining"}, {"measurement": "labelling of human neutrophil granules", "setting": "[1]; listed as MUB40-Cy5", "result": "specifically labeled"}, {"measurement": "labelling after differentiation in polymorphonuclear neutrophils", "setting": "[2]; G-CSF, IL-3, IL-6, 2 weeks", "result": "positive staining"}, {"measurement": "labelling of hematopoietic stem cells", "setting": "[2]; during proliferation", "result": "not labelled"}, {"measurement": "labelling of recruited neutrophils", "setting": "[3]", "result": "specifically labeled"}]}
